From US11684616B2, “Azalactam compounds as HPK1 inhibitors” (PFIZER INC., priority 2020, dated 2023)

What was measured:
[1] = target: human full-length autophosphorylated recombinant HPK1 (Homo sapiens (Human), UniProt Q92918); assay: HPK1 biochemical enzyme assay (chelation-enhanced fluorescence, CHEF); details: 0.5 nM HPK1, 45 μM ATP, Morrison fit
Description: HPK1 Biochemical Enzyme Assay
HPK1 enzyme inhibition was measured by using the fluorescence-based chelation-enhanced fluorescence (CHEF) method (1), and by using a proprietary fluorescent peptide substrate, in which a cysteine residue is alkylated with a sulfonamido-oxine-based derivative to afford an amino acid termed C-Sox (CSx). […] Initial reaction velocities were determined by following the peptide fluorescence (λex=360 nm, λem=500 nm) at 30° C. for 15 min in a Tecan M1000 plate reader (Tecan Group Ltd., Mannedorf, Zurich, Switzerland).
Production of Autophosphorylated Full-Length Recombinant HPK1
The DNA sequence encoding full-length human HPK1 (Genbank NM_001042600.2) was synthesized at GenScript and contained a limited number of silent base changes to eliminate certain restriction endonuclease enzyme recognition sites, and fused to a DNA sequence encoding a Tobacco Etch Virus (TEV)-cleavable N-terminal polyhistidine purification tag. A recombinant baculovirus was prepared by using the Bac-to-Bac method (InVitrogen) and was used to infect 9 L of Sf21 insect cells. All purification steps were carried out at 4° C. Cells containing recombinant HPK1 were lysed in 50 mM HEPES-NaOH, pH 7.5, 250 mM NaCl, 1 mM tris(2-carboxyethyl)phosphine (TCEP), 10 μM leupeptin (Sigma), 10 μM E-64 (Sigma), and one ‘EDTA-free’ protease inhibitor tablet (Roche) per 75 mL buffer, centrifuged at 15,000×g for 1 h and the supernatant passed over 5 mL of ProBond IMAC resin (InVitrogen). After washing, HPK1 was eluted with 12.5 mL of 50 mM HEPES-NaOH, pH 7.5, 400 mM NaCl, 250 mM imidazole-HCl pH 7.5, 1 mM TCEP, 2 μM leupeptin, and 2 μM E-64. The eluted HPK1 was dialyzed overnight against 0.8 L of 50 mM HEPES-NaOH, pH 7.5, 400 mM NaCl, 20 mM imidazole-HCl pH 7.5, 1 mM TCEP, 2 μM leupeptin, 2 μM E-64, 2 mM ATP-NaOH pH 7.3, 5 mM MgCl2 and 1 mg TEV (this step simultaneously allows for reduction of the imidazole concentration in preparation for the subsequent reverse IMAC chromatography step, removal of the polyhistidine purification tag by TEV protease, and autophosphorylation of HPK1 in the presence of MgATP). The de-tagged and autophosphorylated HPK1 was adjusted to 40 mM imidazole-HCl, pH 7.5, and passed through a 10 mL column of ProBond resin similarly equilibrated. […] The peak fractions containing HPK1 were pooled and concentrated to approximately 2.5 mL by using a centrifugal concentrator (Millipore). The concentrated HPK1 was adjusted to 20% (v/v) glycerol by the addition of 50% (v/v) glycerol, resulting in a final formulation of 25 mM HEPES-NaOH pH 7.5, 250 mM NaCl, 0.25 mM TCEP and 20% (v/v) glycerol. […] Aliquots of the enzyme were flash frozen in liquid nitrogen and stored at −80° C. The final product contains a glycine-serine extension at the N-terminus of the full-length protein, as a result of the cloning strategy.

[2] = test system: Phospho-SLP-76 (Ser376) in Jurkat cells; assay: Phospho-SLP-76 (Ser376) HTRF assay in anti-CD3 stimulated Jurkat cells; format: cell-based; details: Homo sapiens, Jurkat, 30 min pre-treatment, anti-CD3 stimulation 15 min, read-out: pSLP76 IC50
Description: Cell Based Assays Phospho-SLP-76 (Ser376) Homogeneous Time Resolved Fluorescence (HTRF) Assay
Jurkat cells were seeded at 90,000 cells/well in 90 uL of RPMI1640 growth medium containing 10% FBS and incubated at 37° C. with 5% CO2 overnight. The following day, compounds were serially diluted from a 10 mM top dose for an 11-point 3-fold dilution curve in DMSO. Compounds were intermediately diluted 1:100 into growth media prior to diluting 1:10 on cells for final concentration 10 μM to 0.1 nM in 0.1% DMSO. After 30 min pre-treatment with compounds, the cells were stimulated using 200 μg/mL of F(ab)2 complexed anti-CD3 (clone UCTH1) for 15 min at 37° C. with 5% CO2. Stimulation was stopped with ice cold PBS and cells were harvested by centrifugation before lysis in Cisbio lysis buffer (Cisbio, Bedford, Mass.). Lysates were transferred to white, low-volume plates containing anti-phospho-SLP-76-Cryptate plus anti-phospho-SLP-76-d2 HTRF antibodies and incubated overnight at room temperature protected from light according to the manufacturer's protocol (Cisbio, Bedford, Mass.). HTRF was measured on a Perkin Elmer Envision and IC50 values were calculated by concentration-response curve fitting utilizing four-parameter nonlinear regression analyses.

Chain of human full-length autophosphorylated recombinant HPK1 (Q92918 other isoform, or with tags, fused parts or gaps): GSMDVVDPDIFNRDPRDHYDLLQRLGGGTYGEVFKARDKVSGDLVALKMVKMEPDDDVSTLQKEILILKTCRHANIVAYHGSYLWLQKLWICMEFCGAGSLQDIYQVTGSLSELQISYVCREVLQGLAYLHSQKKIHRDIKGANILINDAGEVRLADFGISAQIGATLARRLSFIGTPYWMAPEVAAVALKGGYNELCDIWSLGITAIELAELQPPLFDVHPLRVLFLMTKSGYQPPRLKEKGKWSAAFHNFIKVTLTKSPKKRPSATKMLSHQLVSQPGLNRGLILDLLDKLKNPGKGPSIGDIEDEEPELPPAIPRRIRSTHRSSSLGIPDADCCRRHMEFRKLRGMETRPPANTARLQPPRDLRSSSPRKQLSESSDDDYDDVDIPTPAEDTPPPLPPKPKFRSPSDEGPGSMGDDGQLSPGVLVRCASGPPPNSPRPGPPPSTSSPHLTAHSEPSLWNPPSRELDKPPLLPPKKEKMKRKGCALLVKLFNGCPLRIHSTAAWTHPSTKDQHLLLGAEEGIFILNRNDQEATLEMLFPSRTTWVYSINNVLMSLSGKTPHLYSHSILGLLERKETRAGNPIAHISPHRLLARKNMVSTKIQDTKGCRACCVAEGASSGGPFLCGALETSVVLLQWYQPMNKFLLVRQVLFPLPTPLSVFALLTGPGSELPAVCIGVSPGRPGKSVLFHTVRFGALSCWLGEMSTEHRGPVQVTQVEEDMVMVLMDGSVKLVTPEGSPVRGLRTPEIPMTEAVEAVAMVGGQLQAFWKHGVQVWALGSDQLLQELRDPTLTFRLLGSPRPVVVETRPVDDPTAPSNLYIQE

Compound	Ki [1] [nM]	IC50 [2] [nM]
CCCn1cnnc1-c1cccc(N2Cc3c(cc(N4CCC[C@H]4C)nc3[C@H](N)CC)C2=O)n1 [Example 144, 4-[(1R)-1-aminopropyl]-6-[(2R)-2-methylpyrroli-din-1-yl]-2-[6-(4-propyl-4H-1,2,4-triazol-3-yl)pyridin-2-yl]-2,3-dihydro-1H-pyrrolo[3,4-c]pyridin-1-one]	0.11	90
C[C@H](N)c1nc(N2CCC[C@H]2C)cc2c1CN(c1cccc(-c3nnc4n3[C@H](C)CC4)n1)C2=O (single isomer, unassigned) [Example 27]	< 0.05	56
CC[C@@H](N)c1nc(N2CCC[C@H]2C)cc2c1CN(c1cccc(-c3nncn3CC)n1)C2=O [Example 140, 4-[(1R)-1-aminopropyl]-2-[6-(4-ethyl-4H-1,2,4-triazol-3-yl)pyridin-2-yl]-6-[(2R)-2-methylpyrroli-din-1-yl]-2,3-dihydro-1H-pyrrolo[3,4-c]pyridin-1-one]	< 0.07	53
CC[C@@H](N)c1nc(C2(C)CC2)cc2c1CN(c1cccc(-c3nnc4n3[C@@H](C)CC4)n1)C2=O (single isomer, unassigned) [Example 37]	< 0.05	49
CCN(C)c1cc2c(c([C@@H](C)N)n1)CN(c1cccc(-c3nncn3CC)n1)C2=O (single isomer, unassigned) [Example 129, 4-[(1ξ)-1-aminoethyl]-6-[ethyl(methyl)amino]-2-[6-(4-ethyl-4H-1,2,4-triazol-3-yl)pyridin-2-yl]-2,3-dihydro-1H-pyrrolo[3,4-c]pyridin-1-one]	0.28	97
C[C@@H]1CCCN1c1cc2c(c(C(C)(C)N)n1)CN(c1cccc(-c3nnc4n3[C@@H](C)CC4)n1)C2=O [Example 17, 4-(2-aminopropan-2-yl)-2-{6-[(5S)-5-methyl-6,7-dihydro-5H-pyrrolo[2,1-c][1,2,4]triazol-3-yl]pyridin-2-yl}-6-[(2R)-2-methylpyrroli-din-1-yl]-2,3-dihydro-1H-pyrrolo[3,4-c]pyridin-1-one]	< 0.05	23
C[C@@H]1CCCN1c1cc2c(c([C@@H](C)N)n1)CN(c1cccc(-c3nnc4n3[C@@H](CO)CC4)n1)C2=O [Example 30, 4-[(1R)-1-aminoethyl]-2-{6-[(5R)-5-(hydroxy-methyl)-6,7-dihydro-5H-pyrrolo[2,1-c][1,2,4]triazol-3-yl]pyridin-2-yl}-6-[(2R)-2-methylpyrroli-din-1-yl]-2,3-dihydro-1H-pyrrolo[3,4-c]pyridin-1-one]	< 0.05	62
CCn1cnnc1-c1cccc(N2Cc3c(cc(N4CCC[C@H]4C)nc3[C@H](C)N)C2=O)n1 (single isomer, unassigned) [Example 150]	0.11	59
CCCn1cnnc1-c1cccc(N2Cc3c(cc(C4(C)CC4)nc3[C@H](C)NC)C2=O)n1 [Example 113, 4-[(1S)-1-(methylamino)ethyl]-6-(1-methylcyclo-propyl)-2-[6-(4-propyl-4H-1,2,4-triazol-3-yl)pyridin-2-yl]-2,3-dihydro-1H-pyrrolo[3,4-c]pyridin-1-one]	0.67	133
CNCc1nc(N(C)C(C)C)cc2c1CN(c1cccc(-c3nnc4n3[C@@H](CF)CC4)n1)C2=O [Example 205, 2-{6-[(5R)-5-(fluoromethyl)-6,7-dihydro-5H-pyrrolo[2,1-c][1,2,4]triazol-3-yl]pyridin-2-yl}-4-[(methyl-amino)methyl]-6-[methyl (propan-2-yl)amino]-2,3-dihydro-1H-pyrrolo[3,4-c] pyridin-1-one]	< 0.05	52
CCCn1cnnc1-c1cccc(N2Cc3c(cc(C4(C)CC4)nc3[C@H](C)N)C2=O)n1 (single isomer, unassigned) [Example 118, 4-[(1ξ)-1-aminoethyl]-6-(1-methyl-cyclopropyl)-2-[6-(4-propyl-4H-1,2,4-triazol-3-yl)pyridin-2-yl]-2,3-dihydro-1H-pyrrolo[3,4-c]pyridin-1-one]	1.5	324
CC[C@@H](N)c1nc(N(C)C(C)C)cc2c1CN(c1cccc(-c3nnc4n3[C@@H](CF)CC4)n1)C2=O [Example 34, 4-[(1R)-1-aminopropyl]-2-{6-[(5R)-5-(fluoromethyl)-6,7-dihydro-5H-pyrrolo[2,1-c][1,2,4]triazol-3-yl]pyridin-2-yl}-6-[methyl (propan-2-yl)amino]-2,3-dihydro-1H-pyrrolo[3,4-c]pyridin-1-one]	0.15	26
CCn1cnnc1-c1cccc(N2Cc3c(cc(N4CCC[C@H]4C)nc3[C@@H](C)N)C2=O)n1 (single isomer, unassigned) [Example 151]	0.12	33
CCn1cnnc1-c1cccc(N2Cc3c(cc(N4CCC[C@H]4C)nc3[C@@H](C)NC)C2=O)n1 (single isomer, unassigned) [Example 110]	0.09	42
CCn1c(C)nnc1-c1cccc(N2Cc3c(cc(N4CCC[C@H]4C)nc3[C@H](C)NC)C2=O)n1 (single isomer, unassigned) [Example 108]	0.61	84
CCn1c(C)nnc1-c1cccc(N2Cc3c(cc(N4CCC[C@H]4C)nc3C(C)(C)N)C2=O)n1 [Example 134, 4-(2-aminopropan-2-yl)-2-[6-(4-ethyl-5-methyl-4H-1,2,4-triazol-3-yl)pyridin-2-yl]-6-[(2R)-2-methylpyrroli-din-1-yl]-2,3-dihydro-1H-pyrrolo[3,4-c]pyridin-1-one]	0.22	106
CC[C@@H](N)c1nc(C2(C)CC2)cc2c1CN(c1cccc(-c3nncn3CC)n1)C2=O (single isomer, unassigned) [Example 119, 4-[(1ξ)-1-aminopropyl]-2-[6-(4-ethyl-4H-1,2,4-triazol-3-yl)pyridin-2-yl]-6-(1-methylcyclo-propyl)-2,3-dihydro-1H-pyrrolo[3,4-c]pyridin-1-one]	0.9	165
CCCn1cnnc1-c1cccc(N2Cc3c(cc(C4(C)CC4)nc3[C@@H](N)CC)C2=O)n1 (single isomer, unassigned) [Example 122, 4-[(1ξ)-1-aminopropyl]-6-(1-methylcyclo-propyl)-2-[6-(4-propyl-4H-1,2,4-triazol-3-yl)pyridin-2-yl]-2,3-dihydro-1H-pyrrolo[3,4-c]pyridin-1-one]	0.78	354
CC[C@@H](N)c1nc(N(C)C)cc2c1CN(c1cccc(-c3nnc4n3[C@@H](C)CC4)n1)C2=O [Example 28, 4-[(1R)-1-aminopropyl]-6-(dimethyl-amino)-2-{6-[(5S)-5-methyl-6,7-dihydro-5H-pyrrolo[2,1-c][1,2,4]triazol-3-yl]pyridin-2-yl}-2,3-dihydro-1H-pyrrolo[3,4-c]pyridin-1-one]	< 0.045	64
